Data as given in US9790253B2, “OSW-1 analogs and conjugates, and uses thereof” (priority 2011, dated 2017).
Where two headings read alike, the source gives them in different places.

What was measured:
NCI-60 = conditions: read-out: average GI50 against the NCI-60; cited from earlier work
ORP4L-myc-his = molecular target: T1, ORP4L-myc-his (Homo sapiens, UniProt Q969R2); assay: [3H]-25-hydroxycholesterol charcoal-dextran binding assay with ORP4L-myc-his; conditions: for fold lower affinity for ORP4L than for OSBP1: ratio of Ki values; for Ki: read-out: [^3H]-25-OHC K1 (nM) ORP4L-myc-his, competition with 20 nM [3H]-25-OHC, HEK-293T S100 lysate, 4° C., 16 h
T1 sequence (Q969R2 1-916): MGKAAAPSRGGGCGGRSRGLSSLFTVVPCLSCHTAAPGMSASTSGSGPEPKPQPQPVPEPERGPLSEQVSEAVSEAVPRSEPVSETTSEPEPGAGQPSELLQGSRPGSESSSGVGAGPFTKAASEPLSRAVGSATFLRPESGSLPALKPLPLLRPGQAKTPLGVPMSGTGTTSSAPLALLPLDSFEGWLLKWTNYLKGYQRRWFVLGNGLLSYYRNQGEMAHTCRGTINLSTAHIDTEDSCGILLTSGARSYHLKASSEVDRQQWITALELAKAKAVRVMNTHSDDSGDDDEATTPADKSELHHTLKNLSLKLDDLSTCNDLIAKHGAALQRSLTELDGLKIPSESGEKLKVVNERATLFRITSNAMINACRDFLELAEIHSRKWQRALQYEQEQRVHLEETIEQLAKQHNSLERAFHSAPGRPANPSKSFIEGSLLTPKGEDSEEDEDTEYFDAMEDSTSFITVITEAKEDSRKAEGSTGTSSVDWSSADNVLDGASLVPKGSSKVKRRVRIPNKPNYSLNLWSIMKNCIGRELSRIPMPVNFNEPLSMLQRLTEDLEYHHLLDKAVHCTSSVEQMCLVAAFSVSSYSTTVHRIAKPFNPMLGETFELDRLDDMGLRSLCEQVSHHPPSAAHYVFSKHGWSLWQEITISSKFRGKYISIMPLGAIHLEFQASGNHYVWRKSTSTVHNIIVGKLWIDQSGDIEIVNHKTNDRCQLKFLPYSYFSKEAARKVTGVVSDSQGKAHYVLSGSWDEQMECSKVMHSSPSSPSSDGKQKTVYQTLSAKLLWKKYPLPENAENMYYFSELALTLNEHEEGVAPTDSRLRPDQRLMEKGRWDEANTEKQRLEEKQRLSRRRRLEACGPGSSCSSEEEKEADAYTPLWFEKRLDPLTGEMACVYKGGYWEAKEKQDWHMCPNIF
Procedure: [^3H]-25-Hydroxycholesterol charcoal-dextran binding assay. […] These vectors were transfected into HEK-293T cells using Lipofectamine™2000 (Invitrogen), and 48 h after transfection, on-plate lysis of the transfected cells with the M-Per®/HALT™ with EDTA (ThermoScientific) reagent was performed, followed by ultracentrifugation at 100,000 g. The S100 lysate was diluted to 0.2 mg/mL, aliquoted and stored at −80° C. until use. The HEK-293T OSBP1-, ORP4L- or lacZ-myc-his lysate was incubated with [^3H]-25-hydroxycholesterol at 4° C. for 16 h in 96-well plates. After incubation, charcoal/dextran (C/D) was added to the wells for 30 min of shaking at RT, followed by centrifugation for 15 min at 1900 g to pellet the C/D. The C/D-cleared lysate was added to MicroScint™-20 (PerkinElmer) scintillation fluid, and the remaining protein-bound radiolabel was quantified using a TopCount™ scintillation counter. [^3H]-25-hydroxycholesterol binding curves and competition curves were repeated at least three times.
Lysates were thawed on ice, with brief periods of hand warming. Both the ^3H-25-OHC direct binding assays and the ^3H-25-OHC competition binding assays were set up similarly, with a large stock of binding assay lysate being prepared, then 73.5 μL of the binding assay mixture dispensed using a multi-channel pipettor into “V”-shaped 96-well plates. For the ^3H-25-OHC direct binding assay, 1.5 μL of ^3H-25-OHC and ^3H-25-OHC/40×25-OHC added to the wells in dilutions in 100% ethanol. For the ^3H-25-OHC competition binding assays, ^3H-25-OHC was added to the large stock of binding assay lysate to a final concentration of 20 nM. This ^3H-25-OHC-containing binding lysate was then dispensed using a multi-channel pipettor into the 96-well plates. Then, 1.5 μL of a serial dilution of the inhibitors in either 100% ethanol (25-OHC) or DMSO (the ORPphilins) was added to each well.
The binding lysate used in each well of the 96-well plate consisted of 60 μL of 0.2 mg/mL S100 lysate, 7.5 μL 20% PVA, and 5.6 μL 2M KCl. For ^3H-25-OHC binding curve experiments, 0.4 μL of buffer was then added (total volume per well: 73.5 μL). For the ^3H-25-OHC inhibition competition assays, 0.11 μL of 13.2 μM ^3H-25-OHC and 0.29 μL binding buffer was added for each well (total volume per well: 73.5 μL).
Binding assays were incubated, standing, for 16 h at 4° C. Then 30 μL of the rt C/D solution was multichannel pipetted into new “V’ shaped 96-well plates, and 60 μL of the binding lysate mixture was then added. The plates were briefly, lightly vortexed (˜10 sec), 10 and then rocked at 250 rpm for 30 min at rt. The plates were then centrifuged at 1900 g for 15 min at 4° C. in Microplate Carriers (Sorvall cat. #75006449S) in a Sorvall Legend RT centrifuge. Carefully so as to not disturb the C/D pellet, 30 μL of the supernatant was transferred to 170 μL of Microscint-20 in the OptiPlates. The plates were sealed with the TopSealA-Films, and vigorously vortexed (max speed, >1 min). ^3H-25-OHC detection in the wells was then performed using a TopCount Scintillation detector, counting each well for 2 min. Data was graphed and analyzed using GraphPad PrismS, using non-linear regression to determine KD and K1 values.
Binding experiments were performed at 4° C. for 16 h. Unbound sterol was removed using dextran-coated charcoal, and protein-bound sterol left in the supernatant was quantified by scintillation counting. Ki-values were determined as mean±s.d. from at least three independent experiments.

[1] = tested on: HCT-116 p21^+/+ (wt) cells; assay: Growth inhibition (cell viability assay) of HCT-116 p21+/+ cells; conditions: for GI50: HCT-116 p21+/+
Procedure: Cell viability assay. Cells were plated into 96-well plates in 75 μL of media. After 24 h, a time-zero plate was produced by adding 25 μL of media and 20 μL of CellTiter-Blue® (Promega) to the wells, followed by incubation at 37° C. for 90 min. Fluorescence (544 nm excitation; 590 nm emission) was detected using a SPECTRAmax® Gemini XS to establish cell viability at time of dosing. Then, compounds were serially diluted in media and delivered to the cells as 4× solutions in 25 μL of media. At either 48 h or 72 h, CellTiter-Blue® was added and the fluorescence was recorded as described above.
Tasdemir et al. (2002) J Nat Prod 65:210-4. GI50-values of the compounds were determined in HCT-116 p21^+/+ (wt) and p21^−/− cells after 48 h using a resazurin redox dye to measure cell viability.
Methods are described above in the General Methods section.

OSBP1(V582M) = molecular target: T2, OSBP1(V582M) (Homo sapiens, UniProt P22059, V582M); assay: [3H]-25-OHC binding, OSBP1(V582M) mutant; conditions: for binding affinity for OSBP1(V582M) compared to wt OSBP1-myc-his: [3H]-25-OHC competition binding
T2 construct: made in house; host or cells: HEK-293T (transient transfection; S100 lysate, not purified)
T2 sequence (P22059 1-807 V582M): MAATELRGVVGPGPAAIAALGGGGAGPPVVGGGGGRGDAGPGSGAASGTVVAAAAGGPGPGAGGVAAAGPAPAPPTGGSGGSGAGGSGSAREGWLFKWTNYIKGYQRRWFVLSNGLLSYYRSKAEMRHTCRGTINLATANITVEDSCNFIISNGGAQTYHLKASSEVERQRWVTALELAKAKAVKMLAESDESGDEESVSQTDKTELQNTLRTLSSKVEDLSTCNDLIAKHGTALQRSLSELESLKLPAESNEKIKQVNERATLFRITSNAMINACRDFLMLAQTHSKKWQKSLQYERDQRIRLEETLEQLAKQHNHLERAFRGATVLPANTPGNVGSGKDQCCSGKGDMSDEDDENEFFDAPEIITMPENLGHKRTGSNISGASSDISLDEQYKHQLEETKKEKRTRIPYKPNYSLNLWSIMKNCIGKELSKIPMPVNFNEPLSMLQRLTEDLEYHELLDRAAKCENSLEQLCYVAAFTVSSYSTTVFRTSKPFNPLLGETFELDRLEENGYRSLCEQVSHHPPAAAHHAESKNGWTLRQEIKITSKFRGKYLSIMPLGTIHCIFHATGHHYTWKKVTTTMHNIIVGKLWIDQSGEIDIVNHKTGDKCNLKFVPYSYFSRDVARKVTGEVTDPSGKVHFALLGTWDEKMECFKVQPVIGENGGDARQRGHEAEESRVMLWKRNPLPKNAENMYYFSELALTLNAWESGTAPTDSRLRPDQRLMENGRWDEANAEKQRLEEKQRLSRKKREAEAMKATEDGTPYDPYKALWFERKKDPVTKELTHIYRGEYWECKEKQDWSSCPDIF
Procedure: [^3H]-25-Hydroxycholesterol charcoal-dextran binding assay.
The binding affinity of 1, 2 and 4a to the OSBP1(M446W) and OSBP1(V582M) mutants were then determined using [^3H]-25-OHC competition binding. […] Within error limits, the binding affinity of 1, 2 and 4a for these two OSBP1 mutants were unchanged compared to wt OSBP1-myc-his (FIG. 4D).

[2] = tested on: CERT protein levels in HCT-116 cells or A549 cells; assay: CERT protein levels; format: cell-based, human; conditions: high dose (GI90)
Procedure: Suppression of CERT expression is reported to cause a significant reduction in basal SM biosynthesis. Therefore, 1 and 2 were tested for their ability to induce a reduction in CERT levels, akin to the effects of 1 and 2 on OSBP1 levels.

Molecule | GI50 (NCI-60) [nM] | fold lower affinity for ORP4L than for OSBP1 (ORP4L-myc-his) | fold lower affinity for ORP4L than for OSBP1 (ORP4L-myc-his; listed as 4a) [fold] | Ki (ORP4L-myc-his) [nM] | fold less cytotoxic than the other ORPphilins [1] | binding affinity for OSBP1(V582M) compared to wt OSBP1-myc-his (OSBP1(V582M)) | effect on CERT protein levels [2] | GI50 ([1]; read-out: GI50 (nM) 48 h p21^+/+, 48 h) [nM] | GI50 ([1]; read-out: GI50 (nM) 72 h p21^+/+, 72 h) [nM] | Kd (ORP4L-myc-his; read-out: Kd of [3H]-25-hydroxycholesterol, ORP4L, direct binding) [nM] | 25-OHC KD of OSBP1(V582M) compared to wt (OSBP1(V582M))
schweinfurthin A | 360 | approximately 40 fold | ~40 | 2600 ± 570 | 100-300 fold | unchanged | – | – | – | – | –
COc1ccc(C(=O)O[C@H]2[C@H](O[C@@H]3[C@@H](OC(C)=O)[C@H](O[C@H]4C[C@H]5[C@@H]6CC=C7C[C@@H](O)CC[C@]7(C)[C@H]6CC[C@]5(C)[C@@]4(O)[C@H](C)C(=O)CCC(C)C)OC[C@@H]3O)OC[C@@H](O)[C@@H]2O)cc1 [OSW-1] | 0.78 | – | – | 54 ± 11 | – | unchanged | did not affect | 28 | 1.6 ± 0.6 | – | –
C[C@H](CCCC(C)(C)O)[C@H]1CC[C@H]2[C@@H]3CC=C4C[C@@H](O)CC[C@]4(C)[C@H]3CC[C@]12C [Compound 25-OHC, 25-hydroxycholesterol] | – | – | – | – | – | – | – | – | – | 54 ± 23 | slightly higher
C[C@@H]1[C@]2(O[C@H]3C=C4[C@@H]5CC[C@H]6Cc7nc8c(nc7C[C@]6(C)[C@H]5C[C@@H](O)[C@]4(C)[C@]31O)C[C@@H]1CC[C@H]3C4=CC[C@@H]5[C@H](C)[C@@]6(OC[C@]45C(=O)C[C@@H]3[C@@]1(C)C8)OC(C)(C)C[C@H]6O)O[C@](C)(CO)C[C@H]2O [cephalostatin 1, Cephalostatin 1] | – | – | – | 78 ± 15 | – | unchanged | did not affect | – | – | – | –
